Results as given in patent publication US4963565A, “In vivo treatment of mycobacterial infections with 6-cyclo octylamino-5,8-quinoline quinone” (priority 1986, dated 1990).

Columns and labels:
[1] = system: Mycobacterium leprae; test: Inhibitory activity against Mycobacterium leprae in the macrophage model (3H thymidine uptake); assay type: cell-based, M. leprae (in human monocyte derived macrophages)
Excerpt: The effect of CQQ on Mycobacterium leprae, the causative agent for leprosy, was studied using monocyte derived macrophages obtained from human volunteers.
Blood from a healthy volunteer was drawn and monocytes were removed and cultured to the macrophage stage. This required about 7 days. The macrophages were then exposed to M. leprae bacilli obtained from biopsy specimens of leprosy patients. One sample was exposed to CQQ, while other samples were exposed to DDS (diaminodiphenyl sulphone), the standard antileprosy drug, or rifampin, at various concentrations. Macrophages were exposed to radiolabelled tritium (^3 H) labeled thymidine, and its uptake was measured using a liquid scintillation counter. A control model of M. leprae exposed macrophages, which was not treated was used as well. The uptake of thymidine is a measure of antimycobacterial activity.

[2] = system: M. intracellulare; test: In vitro activity against serovars of M. intracellulare, radiometric (Bactec) method; assay type: cell-based; settings: comparison with CQQ; no data shown
Protocol: A study of the effect of CQQ on different serovars of M. intracellulare in vitro was performed using the radiometric (Bactec) method. Maximum growth index (GI) of 999 was determined (for control models) in terms of the number of days necessary for the culture to reach this stage. GI is measured using the special instrument which reads the amount of ^14 C labelled CO2 liberated from the strains using the ^14 C labelled substrates.

Q: Which results are given for `CO[C@H]1/C=C/O[C@@]2(C)Oc3c(C)c(O)c4c(O)c(c(/C=N/N5CCN(C)CC5)c(O)c4c3C2=O)NC(=O)/C(C)=C\C=C\[C@H](C)[C@H](O)[C@@H](C)[C@@H](O)[C@@H](C)[C@H](OC(C)=O)[C@@H]1C` [rifampin, reference compound]?
A: Counts per minute (3H thymidine uptake) ([1]; Sample I, 3 NG/ML): 82 COUNTS PER MINUTE; Counts per minute (3H thymidine uptake) ([1]; Sample II, 3 NG/ML): 80 COUNTS PER MINUTE; Counts per minute (3H thymidine uptake) ([1]; Sample III, 3 NG/ML): 82 COUNTS PER MINUTE; Effectiveness on M. intracellulare strains [2]: only effective on a few strains

Q: What does the source list for `Nc1ccc(S(=O)(=O)c2ccc(N)cc2)cc1` [DDS, diaminodiphenyl sulphone, reference compound]?
A: Counts per minute (3H thymidine uptake) ([1]; Sample I, 10 NG/ML): 84 COUNTS PER MINUTE; Counts per minute (3H thymidine uptake) ([1]; Sample II, DDS 10 NG/ML): 78 COUNTS PER MINUTE; Counts per minute (3H thymidine uptake) ([1]; Sample III, DDS 10 NG/ML): 84 COUNTS PER MINUTE
